Structures are written as SMILES. Where two headings read alike, the source gives them in different places.

In this assay the target is T1, Androgen Receptor (Homo sapiens, UniProt P10275).
T1 construct: endogenous in cells; host or cells: VCaP cells
T1 sequence (P10275 1-920): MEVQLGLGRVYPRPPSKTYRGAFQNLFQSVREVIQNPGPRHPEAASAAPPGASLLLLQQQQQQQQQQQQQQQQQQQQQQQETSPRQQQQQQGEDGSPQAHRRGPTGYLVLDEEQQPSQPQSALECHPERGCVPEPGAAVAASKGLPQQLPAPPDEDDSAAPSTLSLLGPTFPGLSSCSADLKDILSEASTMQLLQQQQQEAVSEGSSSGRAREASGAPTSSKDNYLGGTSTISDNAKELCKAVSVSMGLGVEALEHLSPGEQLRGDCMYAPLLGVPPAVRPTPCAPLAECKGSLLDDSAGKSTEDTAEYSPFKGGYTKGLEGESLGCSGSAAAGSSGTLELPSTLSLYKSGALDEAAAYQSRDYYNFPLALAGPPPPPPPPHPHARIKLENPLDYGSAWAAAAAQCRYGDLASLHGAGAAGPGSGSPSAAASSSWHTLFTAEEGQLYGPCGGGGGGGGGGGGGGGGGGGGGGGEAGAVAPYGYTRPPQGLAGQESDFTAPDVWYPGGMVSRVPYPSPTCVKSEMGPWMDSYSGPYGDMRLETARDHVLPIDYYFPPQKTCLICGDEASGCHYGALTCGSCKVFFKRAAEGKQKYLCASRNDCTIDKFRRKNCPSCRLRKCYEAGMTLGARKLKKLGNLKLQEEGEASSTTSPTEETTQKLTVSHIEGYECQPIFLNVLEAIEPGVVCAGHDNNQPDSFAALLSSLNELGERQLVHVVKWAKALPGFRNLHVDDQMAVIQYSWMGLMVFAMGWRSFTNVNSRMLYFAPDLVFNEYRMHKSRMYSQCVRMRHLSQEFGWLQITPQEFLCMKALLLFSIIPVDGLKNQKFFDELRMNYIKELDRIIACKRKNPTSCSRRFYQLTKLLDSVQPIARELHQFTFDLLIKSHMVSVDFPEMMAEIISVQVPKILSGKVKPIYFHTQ
In words: Androgen Receptor ELISA assay (PathScan AR ELISA) in VCaP cells: AR degradation, Dmax and DC50. The format is cell-based. To be noted: for DC50: read-out: VCaP DC50; for Dmax: VCaP. The procedure, abridged:
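VCaP cells in phenol red-free RPMI with 5% charcoal-stripped FBS were grown at least 3 days, then given compound as 7 half-log doses in 0.1% DMSO with 0.1 nM R1881 for 24 h. Lysates went into a sandwich AR ELISA with TMB read at 450 nm.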

The mark [1] stands for this setting: VCaP cells, Table 36, read-out: VCaP Dmax (%).
The mark [2] stands for this setting: read-out: VCaP Dmax (%), VCaP cells, Table 36.

For orientation: DC50 means the midpoint of the concentration-degradation curve. By Dmax is commonly meant the largest share of the target that was removed. In the case of `Cc1ncsc1-c1ccc([C@H](C)NC(=O)[C@@H]2C[C@@H](O)CN2C(=O)[C@@H](NC(=O)CN2CCN(CCCOCc3cc(C(=O)N[C@@H](C)Cn4ccc(-c5ccc(C#N)c(Cl)c5)n4)n[nH]3)CC2)C(C)(C)C)cc1` [Example 698, N-((S)-1-(3-(3-chloro-4-cyanophenyl)-1H-pyrazol-1-yl)propan-2-yl)-5-((3-(4-(2-(((S)-1-((2S,4R)-4-hydroxy-2-(((S)-1-(4-(4-methylthiazol-5-yl)phenyl)ethyl)carbam-oyl)pyrrolidin-1-yl)-3,3-dimethyl-1-oxobutan-2-yl)amino)-2-oxoethyl)piperazin-1-yl)propoxy)methyl)-1H-pyrazole-3-carboxamide], the DC50 (VCaP cells, Table 36) was below 50 nM. The Dmax under setting [1] was above 71%.
Consider `Cc1ncsc1-c1ccc([C@H](C)NC(=O)[C@@H]2C[C@@H](O)CN2C(=O)[C@@H](NC(=O)COCCN(CCCc2ccc(C(=O)N[C@H]3C(C)(C)[C@H](Oc4ccc(C#N)c(Cl)c4)C3(C)C)nc2)CCC(F)(F)F)C(C)(C)C)cc1` [Example 699, N-((1r,3r)-3-(3-chloro-4-cyanophenoxy)-2,2,4,4-tetramethylcyclobutyl)-5-(3-((2-(2-(((S)-1-((2S,4R)-4-hydroxy-2-(((S)-1-(4-(4-methylthiazol-5-yl)phenyl)ethyl)carbam-oyl)pyrrolidin-1-yl)-3,3-dimethyl-1-oxobutan-2-yl)amino)-2-oxoethoxy)ethyl)(3,3,3-trifluoropropyl)amino)propyl)picolinamide], for which the DC50 (VCaP cells, Table 36) was below 50 nM. The Dmax under setting [2] lay in the range of 26 to 50%.
On to `CNC(=O)[C@H]1CCCN1C(=O)C(NC(=O)COCCN1CCN(c2ccc(C(=O)N[C@H]3C(C)(C)[C@H](Oc4ccc(C#N)c(Cl)c4)C3(C)C)cn2)CC1)C(C)(C)C` (stereo partly drawn) [Example 700, N-((1r,3r)-3-(3-chloro-4-cyanophenoxy)-2,2,4,4-tetramethylcyclobutyl)-6-(4-(2-(2-(((S)-3,3-dimethyl-1-((S)-2-(methylcarbamoyl)pyrroli-din-1-yl)-1-oxobutan-2-yl)amino)-2-oxoethoxy)ethyl)pipera-zin-1-yl)nicotinamide], for which the DC50 (VCaP cells, Table 36) is above 501 nM. Moreover, the Dmax under setting [1] was below 25%.
Turning to `Cc1ncsc1-c1ccc([C@H](C)NC(=O)[C@@H]2C[C@@H](O)CN2C(=O)[C@@H](c2ncc(CCCN3CCN(c4ccc(C(=O)NC5C(C)(C)C(Oc6ccc(C#N)c(Cl)c6)C5(C)C)cn4)CC3)n2C)C(C)C)cc1` (stereo partly drawn) [Example 701, N-((1r,3r)-3-(3-chloro-4-cyanophenoxy)-2,2,4,4-tetramethylcyclobutyl)-6-(4-(3-(2-((R)-1-((2S,4R)-4-hydroxy-2-(((S)-1-(4-(4-methylthiazol-5-yl)phenyl)ethyl)carbam-oyl)pyrrolidin-1-yl)-3-methyl-1-oxobutan-2-yl)-1-methyl-1H-imidazol-5-yl)propyl)piperazin-1-y)nicotinamide], for the setting “VCaP cells, Table 36”, the “VCaP Dmax (%)” value is listed as “+ (Dmax ≤ 25%)” and the DC50 is above 501 nM.
Turning to `Cc1ncsc1-c1ccc([C@H](C)NC(=O)[C@@H]2C[C@@H](O)CN2C(=O)[C@H](c2ncc(CCCN3CCN(c4ccc(C(=O)NC5C(C)(C)C(Oc6ccc(C#N)c(Cl)c6)C5(C)C)cn4)CC3)n2C)C(C)C)cc1` (stereo partly drawn) [Example 702, N-((1r,3r)-3-(3-chloro-4-cyanophenoxy)-2,2,4,4-tetramethylcyclobutyl)-6-(4-(3-(2-((S)-1-((2S,4R)-4-hydroxy-2-(((S)-1-(4-(4-methylthiazol-5-yl)phenyl)ethyl)carbam-oyl)pyrrolidin-1-yl)-3-methyl-1-oxobutan-2-yl)-1-methyl-1H-imidazol-5-yl)propyl)piperazin-1-yl)nicotinamide], under “VCaP cells, Table 36”, the “VCaP Dmax (%)” value is “+ (Dmax ≤ 25%)” and the 50% degradation concentration (DC50) is above 501 nM.
For the molecule `Cc1ncsc1-c1ccc(CNC(=O)[C@@H]2C[C@@H](O)CN2C(=O)C(NC(=O)COCCN2CCN(c3ccc(C(=O)N[C@H]4C(C)(C)[C@H](Oc5ccc(C#N)c(C(F)(F)F)c5)C4(C)C)cn3)C(=O)C2)C(C)(C)C)cc1` (stereo partly shown) [Example 703], the DC50 (VCaP cells, Table 36) was above 501 nM. Under setting [1], the Dmax is below 25%.
As to `Cc1ncsc1-c1ccc(C(NC(=O)[C@@H]2C[C@@H](O)CN2C(=O)C(NC(=O)COCCN2CCN(c3ccc(C(=O)N[C@H]4C(C)(C)[C@H](Oc5ccc(C#N)c(C(F)(F)F)c5)C4(C)C)cn3)CC2)C(C)(C)C)C2COC2)cc1` (stereo partly drawn) [Example 704, N-((1r,3r)-3-(4-cyano-3-(trifluoromethyl)phenoxy)-2,2,4,4-tetramethylcyclobutyl)-6-(4-(2-(2-(((S)-1-((2S,4R)-4-hydroxy-2-(((R)-(4-(4-methylthiazol-5-yl)phenyl)(oxetan-3-yl)methyl)carbamoyl)pyrrolidin-1-yl)-3,3-dimethyl-1-oxobutan-2-yl)amino)-2-oxoethoxy)ethyl)pipera-zin-1-yl)nicotinamide], the DC50 (VCaP cells, Table 36) is above 501 nM. Further, the Dmax under setting [1] was below 25%.
For `Cc1ncsc1-c1ccc([C@@H](NC(=O)[C@@H]2C[C@@H](O)CN2C(=O)C(NC(=O)COCCN2CCN(c3ccc(C(=O)N[C@H]4C(C)(C)[C@H](Oc5ccc(C#N)c(C(F)(F)F)c5)C4(C)C)cn3)CC2)C(C)(C)C)C2COC2)cc1` (stereo partly drawn) [Example 705, N-((1r,3r)-3-(4-cyano-3-(trifluoromethyl)phenoxy)-2,2,4,4-tetramethylcyclobutyl)-6-(4-(2-(2-(((S)-1-((2S,4R)-4-hydroxy-2-(((S)-(4-(4-methylthiazol-5-yl)phenyl)(oxetan-3-yl)methyl)carbamoyl)pyrrolidin-1-yl)-3,3-dimethyl-1-oxobutan-2-yl)amino)-2-oxoethoxy)ethyl)pipera-zin-1-yl)nicotinamide] the same measures were below 50 nM and 26 to 50%.
As for `Cc1ncsc1-c1ccc([C@H](C)NC(=O)[C@@H]2C[C@@H](O)CN2C(=O)[C@@H](NC(=O)CN2CCC(O[C@H]3C[C@H](Nc4ccc(C(=O)N[C@H]5C(C)(C)[C@H](Oc6ccc(C#N)c(Cl)c6)C5(C)C)cc4F)C3)CC2)C(C)(C)C)cc1` [Example 706, (2S,4R)-1-((S)-2-(2-(4-((1R,3S)-3-((4-(((1r,3R)-3-(3-chloro-4-cyanophenoxy)-2,2,4,4-tetramethylcyclobutyl)carbamoyl)-2-fluorophenyl)amino)cyclobutoxy)piperidin-1-yl)acetamido)-3,3-dimethylbutanoyl)-4-hydroxy-N-((S)-1-(4-(4-methylthiazol-5-yl)phenyl)ethyl)pyrrolidine-2-carboxamide], the DC50 (VCaP cells, Table 36) is below 50 nM. Under setting [2], the Dmax was above 71%.
Consider `CO[C@@H]1C[C@@H](C(=O)N[C@@H](C)c2ccc(-c3scnc3C)cc2)N(C(=O)[C@@H](NC(=O)CN2CCN(CCCc3ccc(C(=O)N[C@H]4C(C)(C)[C@H](Oc5ccc(C#N)c(C(F)(F)F)c5)C4(C)C)cc3)CC2)C(C)(C)C)C1` [Example 708, (2S,4R)-1-((S)-2-(2-(4-(3-(4-(((1r,3r)-3-(4-cyano-3-(trifluoromethyl)phenoxy)-2,2,4,4-tetramethylcyclobutyl)carbamoyl)phenyl)propyl)piperazin-1-yl)acetamido)-3,3-dimethylbutanoyl)-4-methoxy-N-((S)-1-(4-(4-methylthiazol-5-yl)phenyl)ethyl)pyrrolidine-2-carboxamide], for which, under “VCaP cells, Table 36”, the DC50 was above 501 nM. Further, the Dmax (read-out: VCaP Dmax (%)) is below 25%.
Turning to `CO[C@@H]1C[C@@H](C(=O)N(C)Cc2ccc(-c3scnc3C)cc2)N(C(=O)[C@@H](N(C)C(=O)COCCCCCN(C)c2ccc(C(=O)N(C)[C@H]3C(C)(C)[C@H](Oc4ccc(C#N)c(C(F)(F)F)c4)C3(C)C)nc2)C(C)(C)C)C1` [Example 709, N-((1r,3r)-3-(4-cyano-3-(trifluoromethyl)phenoxy)-2,2,4,4-tetramethylcyclobutyl)-5-((5-(2-(((S)-1-((2S,4R)-4-methoxy-2-(methyl(4-(4-methylthiazol-5-yl)benzyl)carbamoyl)pyrrolidin-1-yl)-3,3-dimethyl-1-oxobutan-2-yl)(methyl)amino)-2-oxoethoxy)pentyl)(meth-yl)amino)-N-methylpicolinamide], the DC50 (VCaP cells, Table 36) was above 501 nM. In addition, under setting [1], the Dmax was below 25%.

For the origin of these results see patent publication US11427548B2 (Arvinas Operations, Inc., priority 2015, dated 2022).
